From patent US8629144B2, “Polymorphic and hydrate forms, salts and process for preparing 6-{difluoro[6-(1-methyl-1H-pyrazol-4-yl)[1,2,4]triazolo[4,3-b]pyridazin-3-yl]methyl}quinoline” (Janssen Pharmaceutica NV, priority 2007, dated 2014)
Values joined by “and” are separate entries in the source; they are usually repeats but may differ in a detail not shown here. Equal entries are not always repeated. Structures can show the parent of a compound that is named as a salt.

What was measured:
[1] = molecular target: T1, c-Met kinase (Homo sapiens, UniProt P08581); test: c-Met autophosphorylation assay with radioactive ATP; format: biochemical; details: [33P]-γ-ATP, 60 min room temperature, read-out: IC50 for c-Met kinase inhibition
T1 construct: His-6 (N); purchased Panvera Lot 40047X; host or cells: Sf9 insect cells (baculovirus), for the His6-MetKin construct scaled up at Pan Vera
T1 sequence (P08581 956-1390 limits assumed): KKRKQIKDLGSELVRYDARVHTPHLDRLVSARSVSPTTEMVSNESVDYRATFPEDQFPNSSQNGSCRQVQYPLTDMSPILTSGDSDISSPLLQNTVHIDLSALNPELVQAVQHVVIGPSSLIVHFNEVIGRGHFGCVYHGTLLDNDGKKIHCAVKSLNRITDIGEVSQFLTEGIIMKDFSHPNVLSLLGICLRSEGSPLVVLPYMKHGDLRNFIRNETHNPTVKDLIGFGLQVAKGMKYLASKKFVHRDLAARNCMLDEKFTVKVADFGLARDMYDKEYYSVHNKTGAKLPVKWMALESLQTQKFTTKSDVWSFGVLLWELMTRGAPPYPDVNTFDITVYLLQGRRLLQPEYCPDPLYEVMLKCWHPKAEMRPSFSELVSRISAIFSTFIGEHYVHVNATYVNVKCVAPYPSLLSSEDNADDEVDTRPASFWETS
Description: The present autophosphorylation assay uses radioactive ATP to measure the incorporation of phosphate upon c-Met autophosphorylation. The assay procedure for screening is as follows.
c-Met enzyme (purchased from Panvera, Lot 40047X, 2.4 mg/ml); “Assay buffer” (13.3 mM MOPS pH 7; 0.33 mM EDTA); “Enzyme buffer” (20 mM MOPS pH 7; 1 mM EDTA; 0.01% Brij 35; 5% glycerol; 0.1% beta mercapto-EtOH); 100 mM MgAc; 3% phosphoric acid; 75 mM phosphoric acid; 1 mM ATP-stock; [^33P]-γ-ATP (NEN, NEG602H); round-bottom 96-well plates (Corning, 3799); Filtermat P30-filters (Perkin Elmer); “Enzyme mix” (698.80 μl of Enzyme buffer as above+1.17 μl of c-Met enzyme as above); “Substrate mix” (946.00 μl of 100 mM MgAc+50.00 μl ATP (0.1 mM)+4.00 μl [^33P]-γ-ATP as above).
• 1. Distribute 15 μl assay buffer per well. • 2. Add 0.5 μl dilution of tested c-Met inhibitor (e.g., compound (I) or its forms or salts) in DMSO. • 3. Add 5 μl Enzyme mix per well (control: Enzyme buffer in blanc). • 4. Add 5 μl Substrate mix per well. • 5. Incubate at room temperature for 60 min. • 6. Stop reaction with 3% phosphoric acid, 5 μl per well • 7. Shake plate • 8. Spot 5 μl from a well to filtermat P30. • 9. […] Expose the filter to phosphor storage cassette overnight on low energy phosphor storage plate, and detect and quantify the signal using a suitable phosphorimager (herein, Typhoon) Results

[2] = test system: U87MG tumors; test: U87MG glioblastoma tumour xenograft model; format: in vivo, athymic nude mice; details: for Decrease of mean tumor volume: Day 12, p<0.01
Description: The U87MG glioblastoma cell line (Piedmont Research Center LLC) expresses the c-Met receptor and responds to […] (HGF). This study investigated whether treatment with an inhibitor of c-Met is efficacious against the U87MG glioblastoma tumor xenograft model. This study utilized a tumor growth inhibition (TGI) assay to test per os (p.o.) compound monotherapy in groups of fifteen nude mice. A control group was treated with vehicle, 20% Hydroxypropyl Beta-Cyclodextrin (HPBCD). All treatments began on Day 1 (D1) in mice bearing established subcutaneous (s.c.) U87MG tumors.
Female athymic nude mice (Harlan) were 10-11 weeks old with a BW range of 18.1-25.0 g on D1 of the study. The animals were fed ad libitum water (reverse osmosis, 1 ppm Cl) and NIH 31 Modified and Irradiated Lab Diet® consisting of 18.0% crude protein, 5.0% crude fat, and 5.0% crude fiber. The mice were housed on irradiated ALPHA-Dri® bed-o-cobs® Laboratory Animal Bedding in static microisolators on a 12-hour light cycle at 21-22° C. (70-72° F.) and 40-60% humidity. All animals were housed in a Laboratory Animal Medicine facility that is fully accredited by the American Association for Assessment and Accreditation of Laboratory Animal Care (AAALAC). All procedures involving animals were conducted in compliance with the NIH Guide for the Care and Use of Laboratory Animals and all protocols were approved by an Internal Animal Care and Use Committee (IACUC).
Xenografts were initiated from U87MG human glioblastoma tumor fragments maintained by serial transplantation in athymic nude mice. Each test mouse received a subcutaneous U87MG tumor fragment (1 mm^3) implanted in the right flank, and the growth of tumors was monitored as the average size approached 200 mm^3. Twelve days later, on Day 1 of the study, the animals were sorted into 4 groups (n=12-15 mice/group) with individual tumor volumes ranging from 172-352 mm^3 and group mean tumor volumes of 216 mm^3. Tumor volume was calculated using the formula: […]
Dosing solutions of compounds of the present invention were prepared fresh weekly in a vehicle consisting of 20% Hydroxypropyl Beta-Cyclodextrin (HPBCD) in water. In all groups, the dosing volume of 0.2 mL/20-g mouse was scaled to the body weight of each animal. Doses were given to allow for the HCl salt form of the compound.
TGI was calculated from the difference between the median tumor volumes of vehicle-treated and drug-treated mice, expressed as a percentage of the median tumor volume of the vehicle-treated control group, by the following relation:
The MTV (n) is defined as the median tumor volume (MTV) for the number of animals, n, remaining in the study on that day.
Animals were weighed daily for the first five days of the study and then twice weekly. The mice were examined frequently for overt signs of any adverse, drug-related side effects, and clinical signs of toxicity were recorded when observed. Acceptable toxicity is defined as a group mean body-weight (BW) loss of less than 20% during the study, and not more than one treatment-related (TR) death among ten animals. A death is classified as TR if it is attributable to treatment side effects as evidenced by clinical signs and/or necropsy, or due to unknown causes during the dosing period or within 10 days of the last dose. A death is classified as non treatment-related (NTR) if there is no evidence that the death was related to drug side effects. […]

[3] = test system: S114 tumors; test: S114 tumor model; format: in vivo, athymic nude mice; details: 100 mg/kg p.o. q.d., four consecutive days
Description: Female athymic nude mice (CD-1, nu/nu, 9-10 weeks old) were obtained from Charles River Laboratories (Wilmington, Mass.) and were maintained according to NIH standards. All mice were group housed (5 mice/cage) under clean-room conditions in sterile micro-isolator cages on a 12-hour light/dark cycle in a room maintained at 21-22° C. and 40-50% humidity. Mice were fed irradiated standard rodent diet and water ad libitum. All animals were housed in a Laboratory Animal Medicine facility that is fully accredited by the American Association for Assessment and Accreditation of Laboratory Animal Care (AAALAC). All procedures involving animals were conducted in compliance with the NIH Guide for the Care and Use of Laboratory Animals and all protocols were approved by an Internal Animal Care and Use Committee (IACUC).
The murine NIH 3T3 derived cell line S114, which has been engineered to over-express both […] (HGF) and the human c-Met receptor, was propagated in DMEM media (Life Technologies, Bethesda, Md.). Immediately prior to injection, cells were washed counted and resuspended in PBS. Female athymic nude mice weighing no less than 20-21 grams were inoculated subcutaneously in the left inguinal region of the thigh with 5×10^6 cells in a delivery volume of 0.1 mL. Tumors were allowed to grow to for five days.
Mice were dosed orally at 100 mg/kg compound in 20% HPBCD or with vehicle (20% HPBCD, control group). Dosing was continued for 4 consecutive days. Compounds of the invention were prepared fresh daily as a clear solution in 20% HPBCD and administered as described above. Body weight was measured at the end of the study and a loss of body weight >10% was used as an indication of lack of compound tolerability. Unacceptable toxicity was defined as body weight loss >20% during the study. Mice were closely examined daily at each dose for overt clinical signs of adverse, drug-related side effects.
On the day of study termination, a final tumor volume and final body weight were obtained on each animal. […]

[4] = Water adsorption (hygroscopicity) of salts of compound (I); format: physicochemical
Description: Free base of compound (I) (3 g; 7.95 mmol) was dissolved in absolute ethanol (40 mL) and heated to 78° C. An acid (HCl 6M in 2-propanol, 2.0 ml (12 mmol); HBr 48% in water, 0.98 mL (8.75 mmol); methane sulphonic acid, 917 mg (9.54 mmol); ethane sulphonic acid, 1.05 g (9.54 mmol) or p-toluene sulphonic acid monohydrate (1.66 g (8.75 mmol)) was added to the hot reaction mixture. The reaction mixture was allowed to cool to room temperature. The resulting precipitate was filtered off, washed with ethanol and dried under vacuum at 60° C.
The obtained solids were analysed by acid titration, Karl-Fisher titration and HPLC. A physical characterisation was performed (DSC, TGA, XRD and IR, DVS).

[5] = Water solubility of salts of compound (I); format: physicochemical; details: 24 hours at 20° C.
Description: An excess of different salts of compound (I) was agitated with water during 24 hours at 20° C. Following filtration, the concentration of compound (I) in the solution was determined by UV spectrometry.

[6] = Absorption and plasma kinetics after oral administration of salts to rat; details: male, SD, rat, plasma, po
Description: Five male SD rats (225±11 g) were used per salt form. From each rat a complete plasma concentration time profile was obtained. Tap water and food were available ad libitum. The test involved salts of compound (I) with HBr, HCl, methanesulphonic acid (mesylate), ethanesulphonic acid (esylate) or p-toluenesulphonic acid (tosylate). The individual salts were dispersed in a 0.5% methocel suspension to a final concentration of 1 mg base eq./ml. The formulations were stored at room temperature.
Administration was oral by gastric intubation: 10 ml/kg to obtain a dose of 10 mg base eq./kg.
Blood samples were collected 30 min, 1, 2, 4, 7 and 24 h after dose administration.
Blood was collected by multiple sampling from a tail vein into Multivette® 600 K3E tubes (Sarstedt). Samples were placed immediately on melting ice and plasma was obtained following centrifugation at 4° C. for 10 minutes at approximately 1900×g. All samples were shielded from daylight and stored at ≦−18° C. prior to analysis.
A limited pharmacokinetic analysis was performed using WinNonlin™ Professional (Version 5.1). A non-compartmental analysis using the lin/log trapezoidal rule with lin/log interpolation was used for all data.

Compound: Cn1cc(-c2ccc3nnc(C(F)(F)c4ccc5ncccc5c4)n3n2)cn1 [Compound (I), 6-{difluoro[6-(1-methyl-1H-pyrazol-4-yl)[1,2,4]triazolo[4,3-b]pyridazin-3-yl]methyl}quinoline]
- IC50 [1]: ~7.01 nM
- Decrease of mean tumor volume ([2]; 25 mg/kg p.o. (q.d. day 1, b.i.d. to day 12)): 94%
- Decrease of mean tumor volume ([2]; 50 mg/kg p.o. (b.i.d. 7 days, 24-hr pause, q.d. to day 12)): 96%
- Decrease of mean tumor volume ([2]; 75 mg/kg p.o. (b.i.d. 7 days, 24-hr pause, q.d. to day 12)): 97%
- Tumor growth inhibition of U87MG tumors ([2]; p.o. 25, 50 and 75 mg/kg, all doses, p<0.01): statistically significant
- Tumor regression ([2]; p.o. 25, 50 and 75 mg/kg, all three doses): Tumor regression was also observed
- S114 tumor regression, mice responding [3]: regressed in all five mice
- Mice with tumors regressed to non-palpable, non-detectable ([3]; end of study): three of the five mice
- Final tumour weights ([3]; individual mice): 0.017 g (2×) and no tumour (3×)

Compound: Cn1cc(-c2ccc3nnc(C(F)(F)c4ccc5ncccc5c4)n3n2)cn1 [HCl salt]
- Hygroscopicity [4]: hygroscopic
- Water adsorbed ([4]; dried 1 h at 25° C. under dry nitrogen flow, depending on the atmospheric humidity): up to 11.4%
- Measured pH ([5]; saturated solution in water): pH = 1.8
- solubility thermodynamic at 24 h ([5]; water, UV spectrometry): 380 µg/mL
- IC50 [1]: ~13.2 nM
- concentration at 0.5 h ([6]; 10 mg base eq./kg): 3090 ± 235 ng/mL
- concentration at 1 h ([6]; 10 mg base eq./kg): 4210 ± 685 ng/mL
- concentration at 2 h ([6]; 10 mg base eq./kg): 4290 ± 803 ng/mL
- concentration at 4 h ([6]; 10 mg base eq./kg): 2710 ± 706 ng/mL
- concentration at 7 h ([6]; 10 mg base eq./kg): 1940 ± 702 ng/mL
- concentration at 24 h ([6]; 10 mg base eq./kg): 56.1 ± 16.6 ng/mL
- AUC0-inf ([6]; 10 mg/kg): 29900 ± 7260 ng·h/mL
- AUC(0-t) ([6]; 10 mg/kg): 29600 ± 7220 ng·h/mL
- Cmax ([6]; 10 mg/kg): 4430 ± 683 ng/mL
- Tmax ([6]; 10 mg/kg): 1.6 ± 0.5 h
- half-life ([6]; 10 mg/kg): 210 ± 18 min
